Assay results from paper PMC6852045 (International Journal of Cosmetic Science, 2019).

Target: T1, peroxisome proliferator-activated receptor-α (PPARα) (Homo sapiens, UniProt Q07869)
T1 sequence (Q07869 196-468 limits assumed): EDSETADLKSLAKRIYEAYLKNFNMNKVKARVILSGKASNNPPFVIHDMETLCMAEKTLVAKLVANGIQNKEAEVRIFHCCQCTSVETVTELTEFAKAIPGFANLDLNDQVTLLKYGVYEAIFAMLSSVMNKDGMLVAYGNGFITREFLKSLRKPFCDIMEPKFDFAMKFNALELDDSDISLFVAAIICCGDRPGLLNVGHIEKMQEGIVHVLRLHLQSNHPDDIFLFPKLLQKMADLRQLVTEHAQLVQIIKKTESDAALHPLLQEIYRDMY
Assay: GAL4-PPARα LBD one-hybrid luciferase transactivation assay in HEK293 cells
Type: cell-based

For CCCCCCCC[C@@H](O)CCCCCCCCC(=O)O [HSA, (R)‐10‐hydroxyoctadecanoic acid], which EC50 is on record?
Its EC50 is 5.43 µM.
